Measurements as given in patent US9695155B2, “Herbicidal substituted pyrimidinyloxy benzene compounds” (E. I. DU PONT DE NEMOURS AND COMPANY, priority 2013, dated 2017).

Columns and labels:
Test in all cases: Test E preemergence
[1] = test system: field bindweed; assay type: in vivo, Convolvulus arvensis; conditions: for Field Bindweed plant response rating: scale 0 to 100 (0 no effect, 100 complete control)
Source text: (§1) Seeds of plant species selected from corn (Zea mays), soybean (Glycine max), velvetleaf (Abutilon theophrasti), lambsquarters (Chenopodium album), wild poinsettia (Euphorbia heterophylla), palmer pigweed (Amaranthus palmeri), waterhemp (common waterhemp, Amaranthus rudis), surinam grass (Brachiaria decumbens), large (Lg) crabgrass (Digitaria sanguinalis), Brazilian crabgrass (Digitaria horizontalis), fall panicum (Panicum dichotomiflorum), giant foxtail (Setaria faberii), green foxtail (Setaria viridis), goosegrass (Eleusine indica), johnsongrass (Sorghum halepense), ragweed (common ragweed, Ambrosia elatior), barnyardgrass (Echinochloa crus-galli), sandbur (southern sandbur, Cenchrus echinatus), arrowleaf sida (Sida rhombifolia), Italian ryegrass (Lolium multiflorum), dayflower (Virginia (VA) dayflower, Commelina virginica), field bindweed (Convolvulus arvensis), morningglory (Ipomoea coccinea), nightshade (eastern black nightshade, Solanum ptycanthum), kochia (Kochia scoparia), yellow nutsedge (Cyperus esculentus), cocklebur (common cocklebur, Xanthium strumarium), smartweed (ladysthumb smartweed, and hairy beggarticks (Bidens pilosa), were planted into a silt loam soil and treated preemergence with test chemicals formulated in a non-phytotoxic solvent mixture which included a surfactant.
(§2) At the same time, plants from these crop and weed species and also horseweed (Canada horseweed, Conyza canadensis), waterhemp_RES1, (ALS & Triazine resistant common waterhemp, Amaranthus rudis), and waterhemp_RES2, (ALS & HPPD resistant common waterhemp, Amaranthus rudis) were planted in pots containing Redi-Earth® planting medium (Scotts Company, 14111 Scottslawn Road, Marysville, Ohio 43041) comprising spaghnum peat moss, vermiculite, wetting agent and starter nutrients were treated with postemergence applications of test chemicals formulated in the same manner. Plants ranged in height from 2 to 18 cm for postemergence treatments (1- to 4-leaf stage). Treated plants and controls were maintained in a greenhouse for 14 to 21 days, after which time all species were compared to controls and visually evaluated. Plant response ratings, summarized in Table E, are based on a scale of 0 to 100 where 0 is no effect and 100 is complete control. A dash (-) response means no test result.

[2] = test system: sandbur; assay type: in vivo, Cenchrus echinatus; conditions: for Sandbur plant response rating: scale 0 to 100 (0 no effect, 100 complete control)
Source text: as §1, §2

[3] = test system: dayflower; assay type: in vivo, Commelina virginica; conditions: for Dayflower, VA plant response rating: scale 0 to 100 (0 no effect, 100 complete control)
Source text: as §1, §2

[4] = test system: lambsquarters; assay type: in vivo, Chenopodium album; conditions: for Lambsquarters plant response rating: scale 0 to 100 (0 no effect, 100 complete control)
Source text: as §1, §2

[5] = test system: yellow nutsedge; assay type: in vivo, Cyperus esculentus; conditions: for Nutsedge, Yellow plant response rating: scale 0 to 100 (0 no effect, 100 complete control)
Source text: as §1, §2

[6] = test system: ragweed; assay type: in vivo, Ambrosia elatior; conditions: for Ragweed plant response rating: scale 0 to 100 (0 no effect, 100 complete control)
Source text: as §1, §2

[7] = test system: Italian ryegrass; assay type: in vivo, Lolium multiflorum; conditions: for Ryegrass, Italian plant response rating: scale 0 to 100 (0 no effect, 100 complete control)
Source text: as §1, §2

[8] = test system: goosegrass; assay type: in vivo, Eleusine indica; conditions: for Goosegrass plant response rating: scale 0 to 100 (0 no effect, 100 complete control)
Source text: as §1, §2

[9] = test system: soybean; assay type: in vivo, Glycine max; conditions: for Soybean plant response rating: scale 0 to 100 (0 no effect, 100 complete control)
Source text: as §1, §2

[10] = test system: waterhemp; assay type: in vivo, Amaranthus rudis; conditions: for Waterhemp plant response rating: scale 0 to 100 (0 no effect, 100 complete control)
Source text: as §1, §2

[11] = test system: hairy beggarticks; assay type: in vivo, Bidens pilosa; conditions: for Beggarticks plant response rating: scale 0 to 100 (0 no effect, 100 complete control)
Source text: as §1, §2

[12] = 125 g ai/ha, scale 0 to 100, 0 no effect, 100 complete control
[13] = preemergence, 125 g ai/ha, scale 0 to 100, 0 no effect, 100 complete control
[14] = 8 g ai/ha, scale 0 to 100, 0 is no effect, 100 is complete control

Question: What does the source list for `Cc1cnc(Oc2cccc(C#N)c2-n2cc(C#N)cn2)nc1` [Compound 90]?
Answer: Field Bindweed plant response rating ([1]; 16 g ai/ha): 35; Field Bindweed plant response rating ([1]; 31 g ai/ha): 50; Field Bindweed plant response rating ([1]; 62 g ai/ha): 70; Plant response rating, Field Bindweed [1, 12]: 65; Sandbur plant response rating ([2]; 16 g ai/ha): 0; Sandbur plant response rating ([2]; 31 g ai/ha): 0; Sandbur plant response rating ([2]; 62 g ai/ha): 0; Plant response rating, Sandbur [2, 12]: 0; Dayflower, VA plant response rating ([3]; 16 g ai/ha): 0; Dayflower, VA plant response rating ([3]; 31 g ai/ha): 0; Plant response rating, Dayflower, VA [3, 12]: 0; Lambsquarters plant response rating ([4]; 16 g ai/ha): 5; Lambsquarters plant response rating ([4]; 31 g ai/ha): 75; Lambsquarters plant response rating ([4]; 62 g ai/ha): 50; Plant response rating, Lambsquarters [4, 12]: 100; Nutsedge, Yellow plant response rating ([5]; 16 g ai/ha): 0; Nutsedge, Yellow plant response rating ([5]; 31 g ai/ha): 0; Nutsedge, Yellow plant response rating ([5]; 62 g ai/ha): 0; Plant response rating, Nutsedge, Yellow [5, 12]: 0; Ragweed plant response rating ([6]; 16 g ai/ha): 0; Ragweed plant response rating ([6]; 31 g ai/ha): 50; Ragweed plant response rating ([6]; 62 g ai/ha): 50; Plant response rating, Ragweed [6, 12]: 75; Ryegrass, Italian plant response rating ([7]; 16 g ai/ha): 0; Ryegrass, Italian plant response rating ([7]; 31 g ai/ha): 0; Ryegrass, Italian plant response rating ([7]; 62 g ai/ha): 0; Plant response rating, Ryegrass, Italian [7, 12]: 0; Goosegrass plant response rating ([8]; 16 g ai/ha): 0; Goosegrass plant response rating ([8]; 31 g ai/ha): 0; Goosegrass plant response rating ([8]; 62 g ai/ha): 5; Plant response rating, Goosegrass [8, 12]: 50; Soybean plant response rating ([9]; 31 g ai/ha): 15; Soybean plant response rating ([9]; 62 g ai/ha): 30; Plant response rating, Soybean [9, 12]: 35; Waterhemp plant response rating ([10]; 16 g ai/ha): 0; Waterhemp plant response rating ([10]; 31 g ai/ha): 0; Waterhemp plant response rating ([10]; 62 g ai/ha): 20; Plant response rating, Waterhemp [10, 12]: 100; Beggarticks plant response rating ([11]; 16 g ai/ha, preemergence): 0; Beggarticks plant response rating ([11]; 31 g ai/ha, preemergence): 5; Plant response rating, Beggarticks ([11]; Preemergence, 62 g ai/ha, scale 0 to 100, 0 no effect, 100 complete control): 10; Plant response rating, Beggarticks [11, 13]: 30

Question: How did the “Plant response rating, Field Bindweed” value [1, 14] turn out when `FC(F)c1cccc(Oc2ncc(Cl)cn2)c1-n1cc(C(F)(F)F)cn1` [Compound 170] was run?
Answer: Its value is 0.

Question: And the “Field Bindweed plant response rating” value ([1]; 16 g ai/ha)?
Answer: Its value is 0.

Question: What about the “Field Bindweed plant response rating” value ([1]; 31 g ai/ha) of the same compound?
Answer: Its value is 0.

Question: And the “Field Bindweed plant response rating” value ([1]; 62 g ai/ha)?
Answer: Its value is 20.

Question: And the “Plant response rating, Field Bindweed” value [1, 12]?
Answer: The value was 30.

Question: And the “Plant response rating, Sandbur” value [2, 14]?
Answer: Its value is 0.

Question: What about the “Sandbur plant response rating” value ([2]; 31 g ai/ha) of the same compound?
Answer: The value was 0.

Question: And the “Sandbur plant response rating” value ([2]; 62 g ai/ha)?
Answer: Its value is 30.

Question: And the “Plant response rating, Sandbur” value [2, 12]?
Answer: The value was 35.

Question: What about the “Plant response rating, Dayflower, VA” value [3, 14] of the same compound?
Answer: Its value is 0.

Question: What about the “Dayflower, VA plant response rating” value ([3]; 16 g ai/ha) of the same compound?
Answer: Its value is 30.

Question: What about the “Dayflower, VA plant response rating” value ([3]; 31 g ai/ha) of the same compound?
Answer: Its value is 30.

Question: And the “Dayflower, VA plant response rating” value ([3]; 62 g ai/ha)?
Answer: The value was 80.

Question: And the “Plant response rating, Dayflower, VA” value [3, 12]?
Answer: The value was 95.

Question: And the “Plant response rating, Lambsquarters” value [4, 14]?
Answer: The value was 0.

Question: And the “Lambsquarters plant response rating” value ([4]; 31 g ai/ha)?
Answer: The value was 98.

Question: And the “Lambsquarters plant response rating” value ([4]; 62 g ai/ha)?
Answer: The value was 100.

Question: What about the “Plant response rating, Lambsquarters” value [4, 12] of the same compound?
Answer: The value was 100.

Question: What about the “Plant response rating, Nutsedge, Yellow” value [5, 14] of the same compound?
Answer: The value was 0.

Question: What about the “Nutsedge, Yellow plant response rating” value ([5]; 31 g ai/ha) of the same compound?
Answer: The value was 20.

Question: What about the “Nutsedge, Yellow plant response rating” value ([5]; 62 g ai/ha) of the same compound?
Answer: Its value is 30.

Question: What about the “Plant response rating, Nutsedge, Yellow” value [5, 12] of the same compound?
Answer: Its value is 40.

Question: What about the “Plant response rating, Ragweed” value [6, 14] of the same compound?
Answer: Its value is 0.

Question: What about the “Ragweed plant response rating” value ([6]; 31 g ai/ha) of the same compound?
Answer: The value was 0.

Question: What about the “Ragweed plant response rating” value ([6]; 62 g ai/ha) of the same compound?
Answer: The value was 5.

Question: What about the “Plant response rating, Ragweed” value [6, 12] of the same compound?
Answer: The value was 35.

Question: And the “Plant response rating, Ryegrass, Italian” value [7, 14]?
Answer: The value was 0.

Question: And the “Ryegrass, Italian plant response rating” value ([7]; 31 g ai/ha)?
Answer: The value was 20.

Question: And the “Ryegrass, Italian plant response rating” value ([7]; 62 g ai/ha)?
Answer: The value was 35.

Question: What about the “Plant response rating, Ryegrass, Italian” value [7, 12] of the same compound?
Answer: Its value is 70.

Question: What about the “Plant response rating, Goosegrass” value [8, 14] of the same compound?
Answer: Its value is 0.

Question: What about the “Goosegrass plant response rating” value ([8]; 31 g ai/ha) of the same compound?
Answer: The value was 40.

Question: And the “Goosegrass plant response rating” value ([8]; 62 g ai/ha)?
Answer: The value was 75.

Question: And the “Plant response rating, Goosegrass” value [8, 12]?
Answer: The value was 98.

Question: What about the “Plant response rating, Soybean” value [9, 14] of the same compound?
Answer: The value was 0.

Question: And the “Soybean plant response rating” value ([9]; 31 g ai/ha)?
Answer: The value was 0.

Question: What about the “Soybean plant response rating” value ([9]; 62 g ai/ha) of the same compound?
Answer: The value was 30.

Question: And the “Plant response rating, Soybean” value [9, 12]?
Answer: Its value is 60.

Question: What about the “Plant response rating, Waterhemp” value [10, 14] of the same compound?
Answer: The value was 0.

Question: And the “Waterhemp plant response rating” value ([10]; 31 g ai/ha)?
Answer: Its value is 80.

Question: What about the “Waterhemp plant response rating” value ([10]; 62 g ai/ha) of the same compound?
Answer: The value was 90.

Question: And the “Plant response rating, Waterhemp” value [10, 12]?
Answer: Its value is 80.

Question: What about the “Plant response rating, Beggarticks” value ([11]; 8 g ai/ha, preemergence, scale 0 to 100, 0 is no effect, 100 is complete control) of the same compound?
Answer: The value was 0.

Question: And the “Beggarticks plant response rating” value ([11]; 16 g ai/ha, preemergence)?
Answer: The value was 0.

Question: And the “Beggarticks plant response rating” value ([11]; 31 g ai/ha, preemergence)?
Answer: Its value is 0.

Question: What about the “Beggarticks plant response rating” value ([11]; 62 g ai/ha, preemergence) of the same compound?
Answer: Its value is 0.

Question: What about the “Plant response rating, Beggarticks” value [11, 13] of the same compound?
Answer: Its value is 0.
